Reference: patent US20080318989A1, “Pyrimidine Kinase Inhibitors” (priority 2005, published 2008)

Columns and labels:
Aurora A = target: T1, Aurora A (Homo sapiens, UniProt O14965); experiment: Aurora A in vitro kinase assay (ELISA); assay type: biochemical; settings: 30 μM ATP, 45 minutes
T1 sequence (O14965 1-403): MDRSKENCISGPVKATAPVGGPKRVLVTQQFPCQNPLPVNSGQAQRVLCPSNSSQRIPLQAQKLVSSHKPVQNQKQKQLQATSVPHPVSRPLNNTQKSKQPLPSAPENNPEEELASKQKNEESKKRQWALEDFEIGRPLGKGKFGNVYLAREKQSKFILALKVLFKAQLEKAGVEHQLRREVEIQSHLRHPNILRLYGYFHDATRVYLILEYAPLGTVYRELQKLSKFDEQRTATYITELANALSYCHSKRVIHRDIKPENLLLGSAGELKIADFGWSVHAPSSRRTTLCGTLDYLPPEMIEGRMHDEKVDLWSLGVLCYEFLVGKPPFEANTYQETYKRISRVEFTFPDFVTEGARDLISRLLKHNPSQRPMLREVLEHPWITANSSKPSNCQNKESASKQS
Experimental: Kinase activities were measured by Enzyme-Linked Immunosorbent Assay (ELISA): Maxisorp 384-well plates (Nunc) were coated with recombinant fusion protein comprising residues 1-15 of Histone H3 fused to the N-terminus of Glutathione-S-Transferase. Plates were then blocked with a solution of 1 mg/mL I-block (Tropix Inc) in phosphate-buffered saline. Kinase reactions were carried out in the wells of the ELISA plate by combining an appropriate amount of Aur A and B kinases and/or mutants thereof with test compound and 30 μM ATP. The reaction buffer was 1× Kinase Buffer (Cell Signaling Technologies) supplemented with 1 μg/mL I-block. Reactions were stopped after 45 minutes by addition of 25 mM EDTA. After washing, substrate phosphorylation was detected by addition of anti-phospho-Histone H3 (Ser 10) 6G3 mAb (Cell Signaling cat #9706) and sheep anti-mouse pAb-HRP (Amersham cat# NA931V), followed by calorimetric development with TMB.

[1] = system: HT29 colon cancer cell line; experiment: Cellular proliferation/viability assay (Cell-Titer-Glo), HT29; assay type: cell-based; settings: Homo sapiens, HT-29, 120 h; HT29, 5 days incubation
Experimental: (§1) Potency of test compounds in inhibiting cellular proliferation and/or cellular viability was estimated using a cellular ATP assay (Cell-Titer-Glo, Promega). Cells (HCT116, HT29 colon cancer cell lines, MCF-7 breast cancer cell line) were seeded in 384-well plates (Greiner μClear) at an appropriate density in 50:50 DMEM/Hams F-12 medium supplemented with 10% fetal calf serum, and allowed to attach overnight. Test compounds were sequentially diluted in DMSO and then culture medium, and added to the cells at appropriate concentrations. Cells were incubated with compound for 5 days. Cell number/viability was estimated using Cell-Titer-Glo reagent (Promega) according to manufacturers instructions.

[2] = system: HCT116 colon cancer cell line; experiment: Cellular proliferation/viability assay (Cell-Titer-Glo), HCT116; assay type: cell-based; settings: Homo sapiens, HCT-116, 120 h; HCT116, 5 days incubation
Experimental: as §1

Compound | IC50 (Aurora A) [nM] | IC50 [1] [nM] | IC50 [2] [nM]
CCN1C(=O)C(C)(C)c2cc(Nc3ncc(F)c(Nc4ccc(C(=O)NC(C)(C)C)cc4)n3)ccc21 [compound 5] | 10.8 |  | 
CCN1C(=O)C(C)(C)c2cc(Nc3ncc(F)c(Nc4ccc(C(=O)Nc5ccccn5)cc4)n3)ccc21 [compound 26] | 23.1 |  | 
CC(=O)N1CC(C)(C)c2cc(Nc3ncc(Cl)c(Nc4ccccc4C(=O)NC4CC4)n3)ccc21 [compound 48] | 24.8 |  | 
CCN1C(=O)C(C)(C)c2cc(Nc3ncc(Cl)c(Nc4ccccc4NC(=O)/C=C/c4ccccc4)n3)ccc21 [compound 49] |  | 100 | 110
CN1C(=O)C(C)(C)c2cc(Nc3ncc(F)c(Oc4ccc(C(=O)Nc5ccccn5)cc4)n3)ccc21 [compound 59] | 10.4 |  | 

Second part, the compound after the results:

IC50 (Aurora A) [nM] | IC50 [1] [nM] | IC50 [2] [nM] | Compound
7.2 |  |  | COCCN1C(=O)C(C)(C)c2cc(Nc3ncc(F)c(Nc4ccccc4NC(=O)C4CC4)n3)ccc21 [compound 38]
2.1 |  |  | CC(=O)N1CCc2cc(Nc3ncc(Cl)c(Nc4ccccc4C(=O)NC4CC4)n3)ccc21 [compound 44]
6 |  |  | O=C(/C=C/c1ccccc1)Nc1ccccc1Nc1nc(Nc2ccc3c(c2)CC(=O)N3)ncc1Cl [compound 50]
0.6 |  |  | O=C(Nc1ccccc1Nc1nc(Nc2ccc3c(c2)CS(=O)(=O)C3)ncc1Cl)C1CC1 [compound 58]
